Literature values in patent US20160000088A1, “PROCESS FOR PRODUCING SILVER-ION ANTIBACTERIAL LIQUID, SILVER-ION ANTIBACTERIAL LIQUID PRODUCED BY SAID PROCESS, AND SILVER-ION-CONTAINING PRODUCT CONTAINING SAID ANTIBACTERIAL LIQUID” (TAIKI CORP., LTD., priority 2013, published 2016).

Tested on: Staphylococcus aureus
Conditions: silver ion concentration of 10 ppb; nutrient broth added (NB culture)

silver ions
decrease of bacterial count: ≥ 2 logs
